According to patent US20230227447A1, “BENZYLAMINE DERIVATIVES AS DDRS INHIBITORS” (CHIESI FARMACEUTICI S.P.A., priority 2020, published 2023):
Where a name gives a salt, the structure may show the parent alone.

Tests used:
DDR1 = DDR1 (Homo sapiens, UniProt Q08345); experiment: DDR1 binding assay (LanthaScreen Europium Kinase Binding assay); design: purchased Carna Biosciences; conditions: 5 nM DDR1, 20 nM Kinase Tracer 178, 1 hour at room temperature; Ki from IC50 by Cheng-Prusoff
Procedure: (§1) DDR1 and DDR2 binding assays were performed using Life Technologies LanthaScreen™ Europium Kinase Binding assay. The compounds were incubated with 5 nM DDR1 (Carna Biosciences) or 5 nM DDR2 (Life Technologies) for 1 hour at room temperature in white 384-well OptiPlate (PerkinElmer), containing 20 nM or 10 nM Kinase Tracer 178 respectively and 2 nM Europium labelled anti-GST antibody (Life Technologies) in assay buffer (50 mM HEPES pH 7.5, 10 mM MgCl2, 1 mM EGTA and 0.01% BRIJ35).
(§2) The ratio of fluorescence emission 665 nm/615 nm after excitation at 340 nm was obtained using the Tecan Spark 20M plate reader. IC50 values were determined in GraphPad Prism 7.0 software, using 4 parameter model: log(inhibitor) vs. response. IC50 values were converted in Ki using the Cheng-Prusoff equation (Ki=IC50/(1+[Tracer]/Kd).

DDR2 = biological target: T1, DDR2 (Homo sapiens, UniProt Q16832); experiment: DDR2 binding assay (LanthaScreen Europium Kinase Binding assay); design: purchased Life Technologies; conditions: 5 nM DDR2, 10 nM Kinase Tracer 178, 1 hour at room temperature; Ki from IC50 by Cheng-Prusoff
T1 sequence (Q16832 22-855): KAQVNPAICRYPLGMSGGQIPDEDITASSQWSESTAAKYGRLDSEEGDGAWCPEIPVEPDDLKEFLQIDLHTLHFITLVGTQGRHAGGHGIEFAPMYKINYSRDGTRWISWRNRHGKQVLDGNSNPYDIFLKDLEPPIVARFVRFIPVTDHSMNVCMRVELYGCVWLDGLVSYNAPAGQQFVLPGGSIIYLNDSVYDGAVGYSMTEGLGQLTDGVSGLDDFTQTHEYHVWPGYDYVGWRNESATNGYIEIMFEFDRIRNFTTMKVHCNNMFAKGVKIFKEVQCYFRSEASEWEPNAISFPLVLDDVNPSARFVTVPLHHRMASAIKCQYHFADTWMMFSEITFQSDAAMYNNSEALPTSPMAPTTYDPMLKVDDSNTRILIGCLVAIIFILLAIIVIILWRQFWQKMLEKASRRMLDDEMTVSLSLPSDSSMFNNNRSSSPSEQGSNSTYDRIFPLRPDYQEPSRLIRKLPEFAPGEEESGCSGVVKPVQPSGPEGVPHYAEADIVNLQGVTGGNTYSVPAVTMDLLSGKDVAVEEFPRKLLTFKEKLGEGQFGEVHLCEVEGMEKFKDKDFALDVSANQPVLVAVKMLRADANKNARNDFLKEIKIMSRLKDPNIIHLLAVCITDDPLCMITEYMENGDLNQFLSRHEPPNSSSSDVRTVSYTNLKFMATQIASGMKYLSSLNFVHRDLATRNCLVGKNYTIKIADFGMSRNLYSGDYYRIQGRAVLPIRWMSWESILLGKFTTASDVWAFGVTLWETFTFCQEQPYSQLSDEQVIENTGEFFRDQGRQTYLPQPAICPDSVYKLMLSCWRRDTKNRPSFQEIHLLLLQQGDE
Procedure: as §1, §2

DDR1, sequence (Q08345 19-913): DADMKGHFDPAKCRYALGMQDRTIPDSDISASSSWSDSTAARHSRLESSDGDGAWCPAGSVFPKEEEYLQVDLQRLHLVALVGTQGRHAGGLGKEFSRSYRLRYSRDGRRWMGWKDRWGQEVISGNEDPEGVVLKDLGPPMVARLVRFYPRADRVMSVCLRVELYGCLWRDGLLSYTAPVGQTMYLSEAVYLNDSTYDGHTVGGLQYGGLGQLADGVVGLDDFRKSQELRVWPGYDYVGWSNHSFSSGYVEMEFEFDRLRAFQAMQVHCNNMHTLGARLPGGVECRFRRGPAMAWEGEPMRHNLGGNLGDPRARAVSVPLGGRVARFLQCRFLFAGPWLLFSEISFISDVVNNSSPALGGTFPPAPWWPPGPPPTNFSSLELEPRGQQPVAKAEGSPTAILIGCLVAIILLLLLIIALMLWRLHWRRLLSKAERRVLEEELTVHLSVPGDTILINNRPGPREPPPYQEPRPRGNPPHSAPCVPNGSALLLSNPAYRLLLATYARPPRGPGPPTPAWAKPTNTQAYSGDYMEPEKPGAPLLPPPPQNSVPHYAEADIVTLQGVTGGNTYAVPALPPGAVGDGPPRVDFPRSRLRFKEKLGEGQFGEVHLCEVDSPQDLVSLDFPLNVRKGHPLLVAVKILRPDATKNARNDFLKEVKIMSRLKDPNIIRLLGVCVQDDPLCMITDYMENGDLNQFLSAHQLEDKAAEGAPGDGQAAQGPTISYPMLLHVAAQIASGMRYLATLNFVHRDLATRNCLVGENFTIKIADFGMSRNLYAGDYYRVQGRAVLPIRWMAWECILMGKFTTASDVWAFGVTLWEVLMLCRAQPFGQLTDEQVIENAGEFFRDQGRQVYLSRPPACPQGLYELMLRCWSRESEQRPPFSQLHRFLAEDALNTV

SMILES | Ki (DDR1) [nM] | Ki (DDR2) [nM]
CNC(=O)c1cc(CNCc2cc(NC(=O)c3cc(CN4CCN(C)CC4)cc(C(F)(F)F)c3)ccc2C)ccn1 [Example 14, N-methyl-4-(((2-methyl-5-(3-((4-methylpiperazin-1-yl)methyl)-5-(trifluoromethyl)benzamido)benzyl)amino)methyl)picolinamide] | 30 to 300 | 30 to 300
Cc1ccc(NC(=O)c2cc(CN3CCN(C)CC3)cc(C(F)(F)F)c2)cc1CNCc1cnc2[nH]ccc2c1 [Example 15, N-(3-((((1H-pyrrolo[2,3-b]pyridin-5-yl)methyl)amino)methyl)-4-methylphenyl)-3-((4-methylpiperazin-1-yl)methyl)-5-(trifluoromethyl)benzamide] | 30 to 300 | 30 to 300
CC(C)c1ccc(C(=O)Nc2cc(CN3CCN(C)CC3)cc(C(F)(F)F)c2)cc1CNc1cnc2ccnn2c1 [Example 16, 4-isopropyl-N-(3-((4-methylpiperazin-1-yl)methyl)-5-(trifluoromethyl)phenyl)-3-((pyrazolo[1,5-a]pyrimidin-6-ylamino)methyl)benzamide] | 30 to 300 | 30 to 300
CCCc1ccc(C(=O)Nc2cc(CN3CCN(C)CC3)cc(C(F)(F)F)c2)cc1CNc1cnc2ccnn2c1 [Example 17, N-(3-((4-methylpiperazin-1-yl)methyl)-5-(trifluoromethyl)phenyl)-4-propyl-3-((pyrazolo[1,5-a]pyrimidin-6-ylamino)methyl)benzamide] | 30 to 300 | 30 to 300
Cc1cn(-c2cc(NC(=O)c3ccc(C)c(CNC(=O)c4cnc5[nH]ccc5c4)c3)cc(C(F)(F)F)c2)cn1 [Example 25, N-(2-methyl-5-((3-(4-methyl-1H-imidazol-1-yl)-5-(trifluoromethyl)phenyl)carbamoyl)benzyl)-1H-pyrrolo[2,3-b]pyridine-5-carboxamide] | < 30 | < 30
Cc1ccc(C(=O)Nc2cc(CN3CCN(C)CC3)cc(C(F)(F)F)c2)cc1CNC(=O)c1cnc2[nH]ccc2c1 [Example 26, N-(2-methyl-5-((3-((4-methylpiperazin-1-yl)methyl)-5-(trifluoromethyl)phenyl)carbamoyl)benzyl)-1H-pyrrolo[2,3-b]pyridine-5-carboxamide] | < 30 | < 30
CC(C)c1ccc(C(=O)Nc2cc(CN3CCN(C)CC3)cc(C(F)(F)F)c2)cc1CNC(=O)c1cnc2[nH]ccc2c1 [Example 27, N-(2-isopropyl-5-((3-((4-methylpiperazin-1-yl)methyl)-5-(trifluoromethyl)phenyl)carbamoyl)benzyl)-1H-pyrrolo[2,3-b]pyridine-5-carboxamide] | 300 to 1000 | 300 to 1000
CCCc1ccc(C(=O)Nc2cc(CN3CCN(C)CC3)cc(C(F)(F)F)c2)cc1CNC(=O)c1cnc2ccccn12 [Example 28, N-(5-((3-((4-methylpiperazin-1-yl)methyl)-5-(trifluoromethyl)phenyl)carbamoyl)-2-propylbenzyl)imidazo[1,2-a]pyridine-3-carboxamide formate salt] | 300 to 1000 | 300 to 1000
CCCc1ccc(C(=O)Nc2cc(CN3CCN(C)CC3)cc(C(F)(F)F)c2)cc1CNc1cncnc1 [Example 29, N-(3-((4-methylpiperazin-1-yl)methyl)-5-(trifluoromethyl)phenyl)-4-propyl-3-((pyrimidin-5-ylamino)methyl)benzamide] | < 30 | 30 to 300
CC(C)c1ccc(C(=O)Nc2cc(CN3CCN(C)CC3)cc(C(F)(F)F)c2)cc1CNc1cncnc1 [Example 30, 4-isopropyl-N-(3-((4-methylpiperazin-1-yl)methyl)-5-(trifluoromethyl)phenyl)-3-((pyrimidin-5-ylamino)methyl)benzamide] | < 30 | < 30
O=C(Nc1cccc(C(F)(F)F)c1)c1ccc(F)c(CNc2cnc3[nH]ccc3c2)c1 [Example 33, 3-(((1H-pyrrolo[2,3-b]pyridin-5-yl)amino)methyl)-4-fluoro-N-(3-(trifluoromethyl)phenyl)benzamide] | < 30 | < 30
Cc1cn(-c2cc(NC(=O)c3ccc(C(F)F)c(CNc4cncnc4)c3)cc(C(F)(F)F)c2)cn1 [Example 36, 4-(difluoromethyl)-N-(3-(4-methyl-1H-imidazol-1-yl)-5-(trifluoromethyl)phenyl)-3-((pyrimidin-5-ylamino)methyl)benzamide] | < 30 | < 30

Further lines, results first:

Ki (DDR1) [nM] | Ki (DDR2) [nM] | SMILES
< 30 | 30 to 300 | Cc1ccc(NC(=O)c2cc(CN3CCN(C)CC3)cc(C(F)(F)F)c2)cc1CN(Cc1cnc2ccccn12)Cc1cnc2ccccn12 [Example 12, N-(3-((bis(imidazo[1,2-a]pyridin-3-ylmethyl)amino)methyl)-4-methylphenyl)-3-((4-methylpiperazin-1-yl)methyl)-5-(trifluoromethyl)benzamide]
< 30 | < 30 | Cc1ccc(NC(=O)c2cc(CN3CCN(C)CC3)cc(C(F)(F)F)c2)cc1CNCc1cnc2ccccn12 [Example 13, N-(3-(((imidazo[1,2-a]pyridin-3-ylmethyl)amino)methyl)-4-methylphenyl)-3-((4-methylpiperazin-1-yl)methyl)-5-(trifluoromethyl)benzamide]
< 30 | 30 to 300 | Cc1ccc(C(=O)Nc2cc(CN3CCN(C)CC3)cc(C(F)(F)F)c2)cc1CNc1cnc2ccnn2c1 [Example 18, 4-methyl-N-(3-((4-methylpiperazin-1-yl)methyl)-5-(trifluoromethyl)phenyl)-3-((pyrazolo[1,5-a]pyrimidin-6-ylamino)methyl)benzamide]
< 30 | < 30 | Cc1ccc(C(=O)Nc2cc(CN3CCN(C)CC3)cc(C(F)(F)F)c2)cc1CNc1cncnc1 [Example 19, 4-methyl-N-(3-((4-methylpiperazin-1-yl)methyl)-5-(trifluoromethyl)phenyl)-3-((pyrimidin-5-ylamino)methyl)benzamide]
< 30 | < 30 | Cc1ccc(C(=O)Nc2cc(CN3CCN(C)CC3)cc(C(F)(F)F)c2)cc1CNC(=O)c1cnc2ccccn12 [Example 21, N-(2-methyl-5-((3-((4-methylpiperazin-1-yl)methyl)-5-(trifluoromethyl)phenyl)carbamoyl)benzyl)imidazo[1,2-a]pyridine-3-carboxamide]
< 30 | < 30 | Cc1cn(-c2cc(NC(=O)c3ccc(C)c(CNC(=O)c4cnc5ccccn45)c3)cc(C(F)(F)F)c2)cn1 [Example 22, N-(2-methyl-5-((3-(4-methyl-1H-imidazol-1-yl)-5-(trifluoromethyl)phenyl)carbamoyl)benzyl)imidazo[1,2-a]pyridine-3-carboxamide]
< 30 | < 30 | CNC(=O)c1cc(NCc2cc(C(=O)Nc3cc(-n4cnc(C)c4)cc(C(F)(F)F)c3)ccc2C)ccn1 [Example 23, N-methyl-4-((2-methyl-5-((3-(4-methyl-1H-imidazol-1-yl)-5-(trifluoromethyl)phenyl)carbamoyl)benzyl)amino)picolinamide]
< 30 | < 30 | CNC(=O)c1cc(NCc2cc(C(=O)Nc3cc(CN4CCN(C)CC4)cc(C(F)(F)F)c3)ccc2C)ccn1 [Example 24, N-methyl-4-((2-methyl-5-((3-((4-methylpiperazin-1-yl)methyl)-5-(trifluoromethyl)phenyl)carbamoyl)benzyl)amino)picolinamide]
